What was measured:
[1] = Cytotoxicity assay (CellTiter Glo) in NHDF cells; details: human, CC50, NHDF cells, maximum 40 μM
[2] = system: CHIKV (strain 181/25mKate); experiment: microbe, parasite or virus in culture; format: cell-based; details: Chikungunya virus, NHDF, 72 h, read-out: titer redn, log

Row | Structure (SMILES) | CC50 at 72 h [1] [µM] | log reduction at 10 µM [2]
1 | COc1c(F)cc(-n2c(-c3ccccn3)nc3cc(N4CCN(C(C)C)CC4)c(Cl)cc3c2=O)cc1F [1ac] | > 40 | 0
2 | COc1c(F)cc(-n2c(-c3cccnc3)nc3cc(N4CCN(C(C)C)CC4)c(Cl)cc3c2=O)cc1F [1ad] | > 40 | 0
3 | COc1c(F)cc(-n2c(C3CCNCC3)nc3cc(N4CCN(C(C)C)CC4)c(Cl)cc3c2=O)cc1F [1i] | 29.1 | 0.95
4 | COc1c(F)cc(-n2c([C@H]3CCCN3)nc3cc(N4CCN(C)CC4)c(F)cc3c2=O)cc1F [(R)-1a] | > 40 | 0.1
5 | COc1c(F)cc(-n2c([C@@H]3CCCN(c4ccccc4)C3)nc3cc(N4CCN(C(C)C)CC4)c(Cl)cc3c2=O)cc1F [(R)-1aa] | > 40 | 0
6 | COc1c(F)cc(-n2c([C@@H]3CCCNC3)nc3ccc(Cl)cc3c2=O)cc1F [(R)-1ab] | > 40 | 0
7 | COc1c(F)cc(-n2c([C@H]3CCCN3)nc3cc(N4CCN(C(C)C)CC4)c(F)cc3c2=O)cc1F [(R)-1b] | > 40 | 1.3
8 | COc1c(F)cc(-n2c([C@H]3CCCN3)nc3cc(N4CCN(C)CC4)c(Cl)cc3c2=O)cc1F [(R)-1c] | > 40 | 0.5
9 | COc1c(F)cc(-n2c([C@H]3CCCN3)nc3cc(N4CCN(C(C)C)CC4)c(Cl)cc3c2=O)cc1F [(R)-1d] | 19 | 2.3
10 | COc1c(F)cc(-n2c([C@H]3CCCN3)nc3cc(N4CCNCC4)c(Cl)cc3c2=O)cc1F [(R)-1e] | 24.9 | 2.1
11 | COc1c(F)cc(-n2c([C@H]3CCN3)nc3cc(N4CCN(C(C)C)CC4)c(Cl)cc3c2=O)cc1F [(R)-1f] | > 40 | 0.1
12 | COc1c(F)cc(-n2c([C@@H]3CCCNC3)nc3cc(N4CCN(C(C)C)CC4)c(Cl)cc3c2=O)cc1F [(R)-1g] | 16.2 | 2.3
13 | COc1c(F)cc(-n2c([C@@H]3CCCNC3)nc3cc(N4CCN(C(C)(C)C)CC4)c(Cl)cc3c2=O)cc1F [(R)-1j] | 17.1 | 1.1
14 | COc1c(F)cc(-n2c([C@@H]3CCCNC3)nc3cc(N4CCN(c5ccccc5)CC4)c(Cl)cc3c2=O)cc1F [(R)-1k] | 11.3 | > 4
15 | COc1c(F)cc(-n2c([C@@H]3CCCNC3)nc3cc(N4CCN(C5CCN(C)CC5)CC4)c(Cl)cc3c2=O)cc1F [(R)-1l] | 11.6 | 2.8
16 | COc1c(F)cc(-n2c([C@@H]3CCCNC3)nc3cc(N4CCN(C)CC4)c(Cl)cc3c2=O)cc1F [(R)-1m] | 23.3 | 2.2
17 | COc1c(F)cc(-n2c([C@@H]3CCCNC3)nc3cc(N4CCNCC4)c(Cl)cc3c2=O)cc1F [(R)-1n] | 16.5 | 0.7
18 | COc1c(F)cc(-n2c([C@@H]3CCCNC3)nc3cc(N4CCC(N5CCOCC5)CC4)c(Cl)cc3c2=O)cc1F [(R)-1o] | 20.6 | 1.1
19 | COc1c(F)cc(-n2c([C@@H]3CCCNC3)nc3cc(N4CCC(N5CCN(C)CC5)CC4)c(Cl)cc3c2=O)cc1F [(R)-1p] | 13.1 | 2.5
20 | COc1c(F)cc(-n2c([C@@H]3CCCNC3)nc3cc(N(C)CCN(C)C)c(Cl)cc3c2=O)cc1F [(R)-1q] | 26.6 | 0.6
21 | CC(C)N1CCN(c2cc3nc([C@@H]4CCCNC4)n(C)c(=O)c3cc2Cl)CC1 [(R)-1r] | > 40 | 0.5
22 | CC(C)N1CCN(c2cc3nc([C@@H]4CCCNC4)n(-c4ccccc4)c(=O)c3cc2Cl)CC1 [(R)-1s] | > 40 | 0.9
23 | COc1ccc(-n2c([C@@H]3CCCNC3)nc3cc(N4CCN(C(C)C)CC4)c(Cl)cc3c2=O)cc1 [(R)-1t] | 29.3 | 1.4
24 | COc1ccc(-n2c([C@H]3CCCN3)nc3c(C)cc([N+](=O)[O-])cc3c2=O)cc1 [BDGR-49, reference compound] | – | 0
